# Measured values taken from patent publication US20230117328A1, “METHODS TO TREAT CANCER USING (R)-N-(3-FLUORO-4-((3-((1-HYDROXYPROPAN-2-YL)AMINO)-1H-PYRAZOLO[3,4-B]PYRIDIN-4-YL)OXY)PHENYL)-3-(4-FLUOROPHENYL)-1-ISOPROPYL-2,4-DIOXO-1,2,3,4-TETRAHYDROPYRIMIDINE-5-CARBOXAMIDE” (Array BioPharma Inc., priority 2020, published 2023).
# Read-outs that look alike come from different tables or passages of the source.
# Test system: female Sprague Dawley rats
# Conditions: for ocular histopathology findings, Day 28: 10 rats
# [1] = 100 mg/kg PO QD Days 1-14 (Group 4)
# [2] = 200 mg/kg PO QD Days 1-14 (Group 5)
# [3] = 200 mg/kg PO QD Days 1-14 (Group 5), 9 rats
smiles,measurement,setting,value
"CC(C)n1cc(C(=O)Nc2ccc(Oc3ccnc4[nH]nc(N[C@H](C)CO)c34)c(F)c2)c(=O)n(-c2ccc(F)cc2)c1=O.Cl [Compound 1 HCl, (R)—N-(3-fluoro-4-((3-((1-hydroxypropan-2-yl)amino)-1H-pyrazolo[3,4-b]pyridin-4-yl)oxy)phenyl)-3-(4-fluorophenyl)-1-isopropyl-2,4-dioxo-1,2,3,4-tetrahydropyrimidine-5-carboxamide hydrochloride]","ocular histopathology findings, Day 56","100 mg/kg PO QD Days 1-7 (Group 2), recovery necropsy, 5 rats",unilateral minimal diffuse atrophy of the ONL which was considered an equivocal change
same,"ocular histopathology findings, Day 28","100 mg/kg PO QD Days 1-7 (Group 2; Test Article 1, Schedule 1)",No test article-related observations
same,incidence of retinal changes (overall),[1],low incidence
same,reversibility of ocular (retinal) changes,[1],did not reverse
same,"animals with ocular (retinal) changes, Day 28","100 mg/kg PO QD Days 1-14 (Group 4; Test Article 1, Schedule 2), 9 rats",one animal (4F-7) had moderate atrophy of the outer nuclear layer (ONL) of the retina
same,"ocular histopathology findings, Day 28","200 mg/kg PO QD Days 1-7 (Group 3; Test Article 2, Schedule 1)",No test article-related observations
same,incidence of retinal changes (overall),[2],high incidence
same,reversibility of ocular (retinal) changes,[2],did not reverse
same,"animals with mild atrophy of ONL (thinning to approximately 6-7 nuclei), Day 28",[3],one animal
same,"animals with minimal atrophy of ONL (thinning to approximately 7-8 nuclei), Day 28",[3],two animals
same,"animals with minimal degeneration of the rods and cones layer, Day 28",[3],six animals
same,"animals with moderate atrophy of ONL (thinning to approximately 4-5 nuclei), Day 28",[3],five animals
same,"animals with moderate degeneration of rod and cone processes, Day 28",[3],two animals
same,"animals with ocular (retinal) changes, Day 28","200 mg/kg PO QD Days 1-14 (Group 5; Test Article 2, Schedule 2), 9 rats",retinal changes were observed in eight animals
same,"tolerability (body weight, clinical observations, deaths)","female rats, 100 or 200 mg/kg PO QD for 7 or 14 days","well tolerated with no effects on body weight, adverse clinical observations or deaths related to test article"
